Reference: patent publication US6613961B1, “Plants capable of metabolizing drugs and use thereof” (priority 1998, dated 2003)

Key:
tobacco R0 plants = assay: Herbicide metabolism in the tobacco R0 plants; type: in vivo; conditions: 14C-labeled 0.5 mM chlorosulfuron (20 μl) on the leaf surface; 50 hours; thin layer chromatography
Protocol: Using the tobacco R0 plants 3 weeks after transplantation, metabolism of chlorosulfuron was measured by the method of Sweetser et al. (Sweetser, P. B. et al., Pestic. Biochem. Physiol., 1982, 17, 18-23). ^14C-labeled 0.5 mM chlorosulfuron (20 μl) was spread on the leaf surface. The leaf surface was washed with acetone 50 hours after the treatment, and a metabolite was extracted by acetone extraction. The extract was concentrated and dried by a rotary evaporator, dissolved in methanol, and analyzed by thin layer chromatography using benzene:acetone:formic acid (30:10:1) as an solvent.

Human CYP2C9 = Human CYP2C9 (Homo sapiens, UniProt P11712); assay: Herbicide metabolism by human P450 molecular species (microsomal fraction); type: in vitro ADME
tobacco transformants = assay: Assay for herbicide resistance in the tobacco R0 plants (human CYP2C9); type: in vivo; design: Tolerance to chlorosulfuron: key: 1: almost dead; 2: severely inhibited growth; 3: slightly inferior growth; 4: the same growth as that when the herbicide was not dispersed; conditions: for Tolerance to chlorosulfuron: cultured for 40 days
Protocol: (§1) Transformed and non-transformed tobacco plants proliferated from axillary buds were transferred onto hormone-free Murashige & Skoog (MS) medium containing 0, 20, 50, 100, or 200 nM chlorosulfuron for assaying tolerance at growth.
(§2) 4, the same growth as that when the herbicide was not dispersed.

[1] = tested on: seeds of Nipponbare into which the gene was not introduced; assay: Germination assay for herbicide resistance, non-introduced rice seeds; type: in vivo, rice (Nipponbare); conditions: chlorosulfuron 250 nM; after about 4 to 7 days
[2] = tested on: non-transformed tobacco plants; only vector introduced; assay: Assay for herbicide resistance in tobacco, control plants; type: in vivo; conditions: for Tolerance to chlorosulfuron: cultured for 40 days
Protocol: as §1, §2

[3] = tested on: human P4502C9 gene-introduced rice; assay: Germination assay for herbicide resistance of human P4502C9 gene-introduced rice R1 seeds; type: in vivo

Human CYP2C9, sequence (P11712 whole entry): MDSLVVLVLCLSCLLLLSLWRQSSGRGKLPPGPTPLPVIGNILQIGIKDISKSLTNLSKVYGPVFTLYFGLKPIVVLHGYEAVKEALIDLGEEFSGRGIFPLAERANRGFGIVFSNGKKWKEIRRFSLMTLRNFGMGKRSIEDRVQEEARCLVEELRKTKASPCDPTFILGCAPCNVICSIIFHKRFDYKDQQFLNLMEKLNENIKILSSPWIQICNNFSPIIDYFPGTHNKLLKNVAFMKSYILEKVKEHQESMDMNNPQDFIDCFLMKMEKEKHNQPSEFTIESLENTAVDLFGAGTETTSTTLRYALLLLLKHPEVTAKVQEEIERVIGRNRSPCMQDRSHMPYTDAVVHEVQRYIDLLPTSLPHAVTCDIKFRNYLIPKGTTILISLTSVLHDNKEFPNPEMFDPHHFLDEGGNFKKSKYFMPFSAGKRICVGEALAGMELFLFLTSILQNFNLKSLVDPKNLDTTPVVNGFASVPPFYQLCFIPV

**Q.** What does the source list for COc1nc(C)nc(NC(=O)NS(=O)(=O)c2ccccc2Cl)n1 [chlorosulfuron]?
**A.** water-soluble substances which remained at the starting point of the development, in the transformants (tobacco R0 plants): increased; metabolic reaction confirmed (Human CYP2C9): ring hydroxylation; growth of the transformants (tobacco transformants; 200 nM chlorosulfuron): grew; Tolerance to chlorosulfuron (tobacco transformants; transformant N8, 20 nM): 4; Tolerance to chlorosulfuron (tobacco transformants; transformant N8, 50 nM): 4; Tolerance to chlorosulfuron (tobacco transformants; transformant N8, 100 nM): 2.5; Tolerance to chlorosulfuron (tobacco transformants; transformant N8, 200 nM): 2; Tolerance to chlorosulfuron (tobacco transformants; transformant N60, 20 nM): 4; Tolerance to chlorosulfuron (tobacco transformants; transformant N60, 50 nM): 4; Tolerance to chlorosulfuron (tobacco transformants; transformant N60, 100 nM): 3; Tolerance to chlorosulfuron (tobacco transformants; transformant N60, 200 nM): 3; Tolerance to chlorosulfuron (tobacco transformants; transformant N61, 20 nM): 4; Tolerance to chlorosulfuron (tobacco transformants; transformant N61, 50 nM): 4; Tolerance to chlorosulfuron (tobacco transformants; transformant N61, 100 nM): 2; Tolerance to chlorosulfuron (tobacco transformants; transformant N61, 200 nM): 2; Tolerance to chlorosulfuron (tobacco transformants; transformant N69, 20 nM): 4; Tolerance to chlorosulfuron (tobacco transformants; transformant N69, 50 nM): 4; Tolerance to chlorosulfuron (tobacco transformants; transformant N69, 100 nM): 2; Tolerance to chlorosulfuron (tobacco transformants; transformant N69, 200 nM): 2; Germination of seeds [1]: inhibited; growth of the non-transformed plants ([2]; 50 nM chlorosulfuron): completely inhibited; Tolerance to chlorosulfuron ([2]; Non-transformed, 20 nM): 2; Tolerance to chlorosulfuron ([2]; Non-transformed, 50 nM): 1.5; Tolerance to chlorosulfuron ([2]; Non-transformed, 100 nM): 1; Tolerance to chlorosulfuron ([2]; Non-transformed, 200 nM): 0.5; Tolerance to chlorosulfuron ([2]; Only vector introduced, 20 nM): 2; Tolerance to chlorosulfuron ([2]; Only vector introduced, 50 nM): 1.5; Tolerance to chlorosulfuron ([2]; Only vector introduced, 100 nM): 1; Tolerance to chlorosulfuron ([2]; Only vector introduced, 200 nM): 0.5; The number of tolerant lines ([3]; 2C9, 250 nM · 2 ml, 44 sample lines): 15; elongation of shoots and roots of segregated individuals ([3]; chlorosulfuron 250 nM): normally elongated
